Results published in patent US8653089B2, “Heterocyclic compounds and methods of use” (F. Hoffmann-La Roche AG, priority 2011, dated 2014).

Experiments:
p110 delta = target: T1, p110 delta (Homo sapiens, UniProt O00329); experiment: PI3K isoform inhibition assay (fluorescence polarization), p110 delta; type: biochemical; conditions: p110 delta binding IC50, selected compounds from Table 1
T1 construct: purchased Upstate Group, Millipore; Dundee, UK
Protocol: PI3K enzymatic activity was assayed by measuring the amount of product phosphatidylinositol 3,4,5-phosphate (PIP3) formed from substrate 4,5 phosphatidylinositol 4,5-phosphate (PIP2) using a fluorescence polarization displacement assay. The decrease in fluorescence polarization of a fluorescent PIP3 probe is measured as it is displaced from a PIP3-binding protein GRP-1detector by PI3K-catalyzed product. Assays were conducted in 384-well black Proxiplates in the presence of 10 mM Tris (pH 7.5), 50 mM NaCl, 4 mM MgCl2, 5% glycerol, 25 μM ATP, 10 μM PIP2 (Echelon Biosciences), 0.05% 3-[(3-cholamidopropyl)dimethylammonio]-1-propanesulfonate, 1 mM dithiothreitol, and 2% DMSO. The kinase reactions were initiated by the addition of 40 ng/mL p110α/p85α, 300 ng/mL p110β/p85α, 40 ng/mL p110γ, or 40 ng/mL p110δ/p85α (Upstate Group, Millipore; Dundee, UK), and 10 μM PIP2 (Echelon Biosciences) to the wells. The reactions were stopped at timepoints that yielded a fixed change in fluorescence polarization consistent with initial rate conditions (typically 30 minutes), by the addition of 12.5 mM EDTA, 100 nM GRP-1 detector, and 5 nM tetramethylrhodamine-labeled PIP3 (TAMRA-PIP3; Echelon Biosciences). After 60 minutes of incubation at room temperature to allow equilibration of labeled and unlabeled PIP3 binding, the parallel and perpendicular components of the fluorescence emissions from each sample were measured at an excitation wavelength of 530 nm and an emission wavelength of 590 nm using an Envision fluorescent plate reader with a rhodamine filter (PerkinElmer Life and Analytical Sciences; Wellesley, Mass.). The assay is capable of detecting 0.1-2.0 μM PIP3 product. The IC50 values were obtained by fitting the dose-dependent inhibition data to a 4-parameter equation using Assay Explorer software (MDL, San Ramon, Calif.). […]
(§1) Recombinant PI3K p110 isoforms alpha, beta, and delta may be prepared and purified according to US 2008/0275067 from recombinant PI3K heterodimeric complexes consisting of a p110 catalytic subunit and a p85 regulatory subunit overexpressed using the BAC-TO-BAC® HT baculovirus expression system (GIBCO/BRL), and then purified for use in biochemical assays. The four Class I PI 3-kinases are cloned into baculovirus vectors as follows:
p110 delta: A FLAG™-tagged (Eastman Kodak Co., U.S. Pat. No. 4,703,004; U.S. Pat. No. 4,782,137; U.S. Pat. No. 4,851,341) version of human p110.delta (Chantry et al., J. Biol. Chem. (1997) 272:19236-41) is subcloned using standard recombinant DNA techniques into the BamHI-XbaI site of the insect cell expression vector pFastbac HTb (Life Technologies, Gaithersburg, Md.), such that the clone is in frame with the His tag of the vector.

p110 alpha = target: T2, p110 alpha (Homo sapiens, UniProt P42336); experiment: PI3K isoform inhibition assay, p110 alpha (delta/alpha selectivity); type: biochemical; conditions: delta/alpha selectivity ratio
T2 construct: purchased Upstate Group, Millipore; Dundee, UK
Protocol: PI3K enzymatic activity was assayed by measuring the amount of product phosphatidylinositol 3,4,5-phosphate (PIP3) formed from substrate 4,5 phosphatidylinositol 4,5-phosphate (PIP2) using a fluorescence polarization displacement assay. The decrease in fluorescence polarization of a fluorescent PIP3 probe is measured as it is displaced from a PIP3-binding protein GRP-1detector by PI3K-catalyzed product. Assays were conducted in 384-well black Proxiplates in the presence of 10 mM Tris (pH 7.5), 50 mM NaCl, 4 mM MgCl2, 5% glycerol, 25 μM ATP, 10 μM PIP2 (Echelon Biosciences), 0.05% 3-[(3-cholamidopropyl)dimethylammonio]-1-propanesulfonate, 1 mM dithiothreitol, and 2% DMSO. The kinase reactions were initiated by the addition of 40 ng/mL p110α/p85α, 300 ng/mL p110β/p85α, 40 ng/mL p110γ, or 40 ng/mL p110δ/p85α (Upstate Group, Millipore; Dundee, UK), and 10 μM PIP2 (Echelon Biosciences) to the wells. The reactions were stopped at timepoints that yielded a fixed change in fluorescence polarization consistent with initial rate conditions (typically 30 minutes), by the addition of 12.5 mM EDTA, 100 nM GRP-1 detector, and 5 nM tetramethylrhodamine-labeled PIP3 (TAMRA-PIP3; Echelon Biosciences). After 60 minutes of incubation at room temperature to allow equilibration of labeled and unlabeled PIP3 binding, the parallel and perpendicular components of the fluorescence emissions from each sample were measured at an excitation wavelength of 530 nm and an emission wavelength of 590 nm using an Envision fluorescent plate reader with a rhodamine filter (PerkinElmer Life and Analytical Sciences; Wellesley, Mass.). The assay is capable of detecting 0.1-2.0 μM PIP3 product. The IC50 values were obtained by fitting the dose-dependent inhibition data to a 4-parameter equation using Assay Explorer software (MDL, San Ramon, Calif.).
Alternatively, inhibition of PI3K was determined in a radiometric assay using purified, recombinant enzyme and ATP at a concentration of 1 uM. The Formula I compound was serially diluted in 100% DMSO. The kinase reaction was incubated for 1 h at room temperature, and the reaction was terminated by the addition of PBS. IC50 values were subsequently determined using sigmoidal dose-response curve fit (variable slope).
The same protocol may be used to establish IC50 values for p110α (alpha) PI3K binding.
as §1
p110 alpha: Similar to the method used for p110 delta, described above, a FLAG™-tagged version of p110 alpha (Volinia et al (1994) Genomics, 24(3):427-77) was subcloned in BamH1-HindIII sites of pFastbac HTb (Life Technologies) such that the clone was in frame with the His tag of the vector.

[1] = system: CD69 expression on CD20 positive cells in human whole blood stimulated by anti-IgM; experiment: CD69 Whole Blood Assay; type: cell-based; conditions: concentration decreasing by 50% the percent CD69 positive cells that are also CD20 positive, 20 hours
Description: Human blood is obtained from healthy volunteers, with the following restrictions: 1 week drug-free, non-smokers. Blood (approximately 20 mls to test 8 compounds) is collected by venipuncture into Vacutainer tubes with sodium heparin.
Cynomolgus monkey blood is obtained courtesy of the LAT group from monkeys not previously exposed to, or after a washout period from, chemical dosing. Additional cyno blood draws may be collected during the course of pharmacokinetic or toxicology studies. Blood (25-30 mls for naïve monkeys or 3-4 mls from monkeys on studies requiring repeated draws) is collected by venipuncture into Vacutainer tubes with sodium heparin.
Solutions of Formula I compounds at 1000 or 2000 μM in PBS (20×), are diluted by three-fold serial dilutions in 10% DMSO in PBS for a nine point dose-response curve. An aliquot of 5.5 μl of each compound is added in duplicate to a 2 ml 96-well plate; 5.5 μl of 10% DMSO in PBS is added as control and no-stimulus wells. Human whole blood—HWB (100 μl) is added to each well. After mixing the plates are incubated at 37° C., 5% CO2, 100% humidity for 30 minutes. Goat F(ab′)2 anti-human IgM (10 μl of a 500 μg/ml solution, 50 μg/ml final) is added to each well (except the no-stimulus wells) with mixing and the plates are incubated for an additional 20 hours. At the end of the 20 hour incubation, samples are incubated with fluorescent labeled antibodies for 30 minutes, at 37° C., 5% CO2, 100% humidity. Include induced control, unstained and single stains for compensation adjustments and initial voltage settings. Samples are then lysed with Pharmingen Lyse according to the manufacturer's instructions. Samples are then transferred to a 96 well plate suitable to be run on the AMS 96 well system on the BD Calibur FACs machine. Data acquired and Mean Fluorescence Intensity values were obtained using Cell Quest Software. Results are initially analyzed by FACS analysis software (Flow Jo). […] The […] values are calculated by ActivityBase using Xlfit version 3, equation 201.

T2 sequence (P42336 whole entry, canonical isoform): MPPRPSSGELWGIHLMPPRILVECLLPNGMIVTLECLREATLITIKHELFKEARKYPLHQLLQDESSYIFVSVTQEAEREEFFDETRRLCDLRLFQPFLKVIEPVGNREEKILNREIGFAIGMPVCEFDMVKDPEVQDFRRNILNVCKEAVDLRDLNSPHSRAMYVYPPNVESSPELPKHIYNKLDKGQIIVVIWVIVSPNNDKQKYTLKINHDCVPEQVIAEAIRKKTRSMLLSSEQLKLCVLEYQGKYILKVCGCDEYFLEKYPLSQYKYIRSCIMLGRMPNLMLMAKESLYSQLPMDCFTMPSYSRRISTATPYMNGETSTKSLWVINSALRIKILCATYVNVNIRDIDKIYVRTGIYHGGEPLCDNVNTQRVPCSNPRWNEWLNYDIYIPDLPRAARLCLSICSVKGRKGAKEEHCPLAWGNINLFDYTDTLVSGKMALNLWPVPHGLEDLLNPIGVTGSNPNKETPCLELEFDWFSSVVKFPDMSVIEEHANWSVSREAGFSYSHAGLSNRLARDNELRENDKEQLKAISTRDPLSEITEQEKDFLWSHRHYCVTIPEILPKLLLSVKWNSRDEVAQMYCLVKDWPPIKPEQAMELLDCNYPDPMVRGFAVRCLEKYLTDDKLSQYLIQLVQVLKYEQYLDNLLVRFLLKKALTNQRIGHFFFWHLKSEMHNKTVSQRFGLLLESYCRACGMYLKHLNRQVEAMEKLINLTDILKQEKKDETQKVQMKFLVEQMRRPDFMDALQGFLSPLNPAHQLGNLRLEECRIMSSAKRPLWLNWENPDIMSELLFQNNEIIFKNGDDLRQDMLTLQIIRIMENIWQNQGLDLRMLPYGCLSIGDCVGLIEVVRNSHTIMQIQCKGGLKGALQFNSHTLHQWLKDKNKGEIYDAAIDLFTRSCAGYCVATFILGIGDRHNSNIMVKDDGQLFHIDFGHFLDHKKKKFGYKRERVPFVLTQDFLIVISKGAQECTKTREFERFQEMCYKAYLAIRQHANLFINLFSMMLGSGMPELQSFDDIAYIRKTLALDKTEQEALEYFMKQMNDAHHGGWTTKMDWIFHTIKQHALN
T2 sequence (P27986 whole entry partner, canonical isoform): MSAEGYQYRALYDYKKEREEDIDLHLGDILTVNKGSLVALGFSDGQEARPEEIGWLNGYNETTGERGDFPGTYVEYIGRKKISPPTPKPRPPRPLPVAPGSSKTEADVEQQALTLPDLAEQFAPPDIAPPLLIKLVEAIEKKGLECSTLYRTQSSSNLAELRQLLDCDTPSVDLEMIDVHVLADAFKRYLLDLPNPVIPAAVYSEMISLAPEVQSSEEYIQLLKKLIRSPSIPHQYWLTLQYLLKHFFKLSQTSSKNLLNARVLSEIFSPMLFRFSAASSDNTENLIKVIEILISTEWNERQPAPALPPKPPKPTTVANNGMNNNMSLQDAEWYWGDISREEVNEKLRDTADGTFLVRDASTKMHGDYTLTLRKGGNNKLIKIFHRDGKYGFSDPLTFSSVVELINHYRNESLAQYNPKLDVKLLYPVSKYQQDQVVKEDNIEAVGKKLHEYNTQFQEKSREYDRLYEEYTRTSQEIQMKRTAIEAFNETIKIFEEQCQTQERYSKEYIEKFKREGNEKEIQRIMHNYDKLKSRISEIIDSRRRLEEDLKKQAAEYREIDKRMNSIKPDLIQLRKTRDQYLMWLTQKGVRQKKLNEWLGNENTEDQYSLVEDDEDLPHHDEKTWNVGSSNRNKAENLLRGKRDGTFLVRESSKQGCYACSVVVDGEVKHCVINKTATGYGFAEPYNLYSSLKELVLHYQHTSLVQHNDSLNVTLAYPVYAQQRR
T1 sequence (O00329 whole entry, canonical isoform): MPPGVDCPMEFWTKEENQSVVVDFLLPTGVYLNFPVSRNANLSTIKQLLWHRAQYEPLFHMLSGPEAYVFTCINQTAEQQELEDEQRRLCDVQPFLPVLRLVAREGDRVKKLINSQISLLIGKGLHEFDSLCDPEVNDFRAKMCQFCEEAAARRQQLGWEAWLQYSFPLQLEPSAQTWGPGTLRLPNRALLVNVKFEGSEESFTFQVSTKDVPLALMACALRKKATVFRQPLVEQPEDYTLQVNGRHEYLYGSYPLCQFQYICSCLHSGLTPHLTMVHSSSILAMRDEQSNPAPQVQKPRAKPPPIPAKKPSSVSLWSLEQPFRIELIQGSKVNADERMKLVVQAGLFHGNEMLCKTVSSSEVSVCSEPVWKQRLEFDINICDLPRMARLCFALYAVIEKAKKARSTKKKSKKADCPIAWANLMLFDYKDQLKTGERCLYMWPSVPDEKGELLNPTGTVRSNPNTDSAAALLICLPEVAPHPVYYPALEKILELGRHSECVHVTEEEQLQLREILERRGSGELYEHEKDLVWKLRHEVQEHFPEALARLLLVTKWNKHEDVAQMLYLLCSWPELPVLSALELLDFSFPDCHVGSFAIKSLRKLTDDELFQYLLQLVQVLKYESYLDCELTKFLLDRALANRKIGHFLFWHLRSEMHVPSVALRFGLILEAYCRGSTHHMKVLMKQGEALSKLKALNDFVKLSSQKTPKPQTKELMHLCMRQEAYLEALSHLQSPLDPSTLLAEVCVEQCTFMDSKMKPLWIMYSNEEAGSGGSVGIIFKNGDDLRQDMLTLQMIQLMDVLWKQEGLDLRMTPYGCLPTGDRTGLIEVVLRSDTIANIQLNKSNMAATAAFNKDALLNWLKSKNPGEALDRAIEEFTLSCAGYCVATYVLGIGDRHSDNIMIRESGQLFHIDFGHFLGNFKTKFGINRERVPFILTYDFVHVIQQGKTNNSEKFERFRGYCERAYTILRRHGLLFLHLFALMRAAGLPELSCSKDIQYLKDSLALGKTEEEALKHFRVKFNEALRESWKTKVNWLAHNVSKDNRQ
T1 sequence (P27986 whole entry partner, canonical isoform): as the sequence (P27986 whole entry partner, canonical isoform) above

IC50 (p110 delta) [nM] | IC50 p110 alpha/IC50 p110 delta (greater than or equal to, ≧) (p110 alpha) | IC50 [1] [nM] | Structure (SMILES)
4.46 | ≥ 470 |  | C[C@H](Nc1ncnc2[nH]cnc12)c1nc2c(Cl)cccc2n1-c1ccccc1 [Example 120, (S)—N-(1-(4-chloro-1-phenyl-1H-benzo[d]imidazol-2-yl)ethyl)-9H-purin-6-amine]
33 | ≥ 64 |  | CC(Nc1ncnc2[nH]cnc12)c1oc2ccccc2c1-c1ccccc1 (centres unmarked) [Example 103, N-(1-(3-phenylbenzofuran-2-yl)ethyl)-9H-purin-6-amine]
1.59 | ≥ 1320 |  | CC[C@H](Nc1ncnc2[nH]cnc12)c1nc2ccccc2n1-c1ccccc1 [Example 119, (S)—N-(1-(1-phenyl-1H-benzo[d]imidazol-2-yl)propyl)-9H-purin-6-amine]
9.1 | ≥ 230 |  | CC(Nc1ncnc2[nH]cnc12)c1nc2ccccc2n1-c1ccccc1 (racemic) [Example 102, N-(1-(1-phenyl-1H-benzo[d]imidazol-2-yl)ethyl)-9H-purin-6-amine]
 |  | 179 | CC[C@H](Nc1ncnc2nc[nH]c12)c1nc2ccc(F)cc2n1-c1ccccc1 [Example 160, (S)—N-(1-(6-fluoro-1-phenyl-1H-benzo[d]imidazol-2-yl)propyl)-7H-purin-6-amine]

Second part, the compound before the results:

Structure (SMILES) | IC50 (p110 delta) [nM] | IC50 p110 alpha/IC50 p110 delta (greater than or equal to, ≧) (p110 alpha) | IC50 [1] [nM]
Nc1ncnc2c1ncn2Cc1nc2ccccc2n1-c1ccccc1 [Example 106, 9-((1-phenyl-1H-benzo[d]imidazol-2-yl)methyl)-9H-purin-6-amine] | 189 | ≥ 11 | 
C[C@H](Nc1ncnc2[nH]cnc12)c1nc2cccc(F)c2n1-c1ccccc1 [Example 124, (S)—N-(1-(7-fluoro-1-phenyl-1H-benzo[d]imidazol-2-yl)ethyl)-9H-purin-6-amine] |  |  | 67.1
C[C@H](Nc1ncnc2[nH]cnc12)c1nc2cccnc2n1-c1ccccc1 [Example 114, (S)—N-(1-(3-phenyl-3H-imidazo[4,5-b]pyridin-2-yl)ethyl)-9H-purin-6-amine] | 20.1 | ≥ 104 | 83.4
C[C@H](Nc1ncnc2[nH]cnc12)c1nc2ccccc2n1C1CCCOC1 (stereo partly drawn) [Example 128, N-((1S)-1-(1-(tetrahydro-2H-pyran-3-yl)-1H-benzo[d]imidazol-2-yl)ethyl)-9H-purin-6-amine] | 36.2 | ≥ 58 | 
C[C@H](Nc1ncnc2sccc12)c1nc2ccccc2n1-c1ccccc1 [Example 143, (S)—N-(1-(1-phenyl-1H-benzo[d]imidazol-2-yl)ethyl)thieno[2,3-d]pyrimidin-4-amine] | 87.9 | ≥ 24 | 
C[C@H](Nc1ncnc2[nH]cnc12)c1nc2ccccc2n1C1CCN(C2COC2)CC1 [Example 129, (S)—N-(1-(1-(1-(oxetan-3-yl)piperidin-4-yl)-1H-benzo[d]imidazol-2-yl)ethyl)-9H-purin-6-amine] | 63.4 | ≥ 33 | 
CC(Nc1ncnc2[nH]cnc12)c1sc2ccccc2c1-c1ccccc1 (centres unmarked) [Example 101, N-(1-(3-phenylbenzo[b]thiophen-2-yl)ethyl)-9H-purin-6-amine] | 52.3 | ≥ 40 | 
CC(=O)N1CCC(n2c([C@H](C)Nc3ncnc4[nH]cnc34)nc3ccccc32)CC1 [Example 115, (S)-1-(4-(2-(1-(9H-purin-6-ylamino)ethyl)-1H-benzo[d]imidazol-1-yl)piperidin-1-yl)ethanone] | 13.7 | ≥ 153 | 
C[C@H](Nc1ncnc2[nH]cnc12)c1nc2cccc(Cl)c2n1-c1ccccc1 [Example 138, (S)—N-(1-(7-chloro-1-phenyl-1H-benzo[d]imidazol-2-yl)ethyl)-9H-purin-6-amine] |  |  | 87.6
C[C@H](Nc1ncnc2[nH]cnc12)c1nc2ccc(F)cc2n1-c1ccccc1 [Example 123, (S)—N-(1-(6-fluoro-1-phenyl-1H-benzo[d]imidazol-2-yl)ethyl)-9H-purin-6-amine] | 0.854 | ≥ 2459 | 29.1
